In patent publication US20060135618A1, “Medicine comprising a thiourea for use as depigmenting agent or anti-mutagenic and anti-carcinogenic agent” (priority 2002, published 2006):

Legend:
[1] = tested on: Salmonella typhimurium TA 104 recN2-4; assay: Vitotox test, antimutagenic effect against UVB; format: cell-based; details: cultures irradiated for 20 s, 254 nm, without MMS
[2] = tested on: Salmonella typhimurium TA 104 recN2-4; assay: Vitotox test, antimutagenic effect against MMS (methylmethanesulphonate); format: cell-based
Method: After incubation of the bacteria with a genotoxic product, the recN promoter is derepressed and the lux operon is expressed: emission of light, the said emission being proportional to the genotoxicity of the product. Some products act directly on the production of light or increase the metabolism of the bacteria, creating false positives. […] The same strain is used as cytotoxicity control (false negatives).
• In order to test the antimutagenic effect against genotoxic molecules, a genotoxic molecule, methylmethanesulphonate (MMS), is used, which is compared against the genotoxicity of a mixture of reference mutagenic molecules, 4-nitroquinoline oxide and benzo(a)pyrene. MMS is placed alone or mixed with bis MsoBT at increasing concentrations and the emissions of light are compared. […] The test product is used with or without metabolic activation (fraction S9: microsomal homogenate containing cytochrome P450: […] final). • The kinetics of emission of light, as a function of the genotoxicity and of the cytotoxicity of the product, is measured for 3 hours (measurements every 5 minutes) with a Fluoroskan Ascent FL (bermnoLabsystems). • The products are supplied by the companies Sigma-Aldrich. […]

[3] = tested on: melanin-producing human melanocyte-keratinocyte co-cultures; assay: Depigmenting effect: melanin extraction from pigmented epidermis co-cultures; format: cell-based; details: for inhibition at 2800 µM: read-out: Inhibition % of the melanin in the co-cultures; for Inhibition % of the melanin in the co-cultures: 2.8 mM in culture medium for 21 days
Method: The culture media are also supplied by this manufacturer.
Extraction is carried out on a pool of two culture wells, which are homogenized in 0.45 ml of sodium dodecyl sulphate (SDS) at 1% containing 0.05 mM of EDTA and 10 mM of Tris HCl (amino-2-(hydroxymethyl)-2-propanediol-1,3), pH 6.8. Add 20 μl of proteinase K at 5 mg/ml to each homogenate. Digest over night at 45° C. Then add a further 20 μl of proteinase K and continue incubation for 4 hours. Then add 50 μl of 0.5 M solution of sodium carbonate and 10 μl of a 30% solution of hydrogen peroxide. Maintain the specimens at 80° C. for 30 min and then cool them. Extract the specimens with 100 μl of a chloroform-methanol mixture (2:1, v/v). After centrifugation at 10,000 g for 10 min, measure the optical density of the supernatant at 405 nm. The products are compared in Table 1 below (the results are expressed as percentage inhibition of the melanin in the co-cultures): […]

CS(=O)(=O)CCCCNC(=S)NCCCCS(C)(=O)=O [bis MSoBT, 1,3-bis-(5-methanesulphonylbutyl) thiourea]
melting point: 142 °C
inhibitory concentration 50 of the mutagenic effect induced by UVB [1]: 25 ppm
inhibitory concentration 50 of the mutagenic effect of MMS ([2]; with S9): 20 ppm
inhibitory concentration 50 of the mutagenic effect of MMS ([2]; without S9): 17 ppm
inhibition at 2800 µM ([3]; Homo sapiens, 504 h): 29.6%
necessary concentration for approx. 30% melanin inhibition, times lower than for kojic acid ([3]; relative to kojic acid): 25 times

C[S+]([O-])CCCCNC(=S)NCCCC[S+](C)[O-] (stereo not shown) [bis MSiBT, 1,3-bis-(5-methanesulphinylbutyl)-thiourea]
Inhibition % of the melanin in the co-cultures [3]: 7.5%

CNC(=S)NC [Dimethylthiourea, dimethylthiourea, reference compound]
Inhibition % of the melanin in the co-cultures [3]: 36%

O=c1cc(CO)occ1O [Kojic acid, reference compound]
inhibition at 35000 µM ([3]; Homo sapiens, 504 h, 35 mM in culture medium for 21 days): 32%

C[S+]([O-])CCCCNC(=S)NCCCCS(C)(=O)=O (stereo not shown) [MSBMSBT, 1-(5-methanesulphinylbutyl)-3-(5-methanesulphonylbutyl)-thiourea]
inhibition at 2800 µM ([3]; Homo sapiens, 504 h): 18%
